Data published in patent publication US20260250318A1, “COMPOSITIONS AND METHODS FOR CROSSING THE BLOOD BRAIN BARRIER” (VOYAGER THERAPEUTICS, INC., priority 2022, published 2026).

What was measured:
Conditions in all cases: synthetic library passage 3, intravenous, relative to wild-type AAV9
[1] = system: brain; assay: NGS fold enrichment of synthetic library (passage 3) in BALB/c mice, first cross-species screen; type: in vivo
Procedure, shortened: (§1)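 Passage-3 synthetic capsid library given intravenously […] to NHPs (2-4 years) and BALB/c or C57Bl/6 mice (n=3, 6-8 weeks). After e.g. 28 days, tissue RNA was RT-PCR amplified and NGS-sequenced; values are fold enrichment of each variant relative to wild-type AAV9.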

[2] = system: brain; assay: NGS fold enrichment of synthetic library (passage 3) in C57Bl/6 mice, first cross-species screen; type: in vivo
Procedure, shortened: as §1

[3] = system: brain, spinal cord, and DRG of the NHPs; assay: NGS fold enrichment of synthetic library (passage 3) in NHPs, first cross-species screen; type: in vivo, cynomolgus macaques (Macaca fascicularis)
Procedure, shortened: as §1

[4] = RNA from brain of BALB/c mice, NGS
[5] = RNA from brain of C57Bl/6 mice, NGS
[6] = RNA from spinal cord of NHPs, NGS

Sequence	Fold enrichment over AAV9 in the brain of Mice (BALB/c) ([1]; RNA NGS, brain of BALB/c mice) [fold]	Fold enrichment over AAV9 in the brain of Mice (C57Bl/6) ([2]; RNA NGS, brain of C57Bl/6 mice) [fold]	Fold enrichment over AAV9 in the brain of NHPs ([3]; RNA NGS, brain of NHPs) [fold]	Fold enrichment over AAV9 in the spinal cord of NHPs ([3]; RNA NGS, spinal cord of NHPs) [fold]	Fold enrichment over AAV9 in the brain of Mice (BALB/c) [1, 4] [fold]	Fold enrichment over AAV9 in the brain of Mice (C57Bl/6) [2, 5] [fold]	Fold enrichment over AAV9 in the brain of NHPs ([3]; RNA from brain of NHPs, NGS) [fold]	Fold enrichment over AAV9 in the spinal cord of NHPs [3, 6] [fold]
GSGQARAHRGNQQT	0.386	0.254	1.017	0.000	–	–	–	–
GSGQASSKSANQQT	–	–	–	–	0.175	0.500	1.339	1.138
GSGQDMKQHHNQQT	0.239	0.358	1.501	1.638	–	–	–	–
GSGQDRHIVQNQQT	0.162	0.285	1.527	11.068	–	–	–	–
GSGQDRNIVQNQQT	0.632	0.454	2.112	0.229	–	–	–	–
GSGQDVTKTGNQQT	–	–	–	–	0.035	0.531	1.173	4.523
GSGQEHRSLANQQT	0.344	0.507	1.046	0.000	–	–	–	–
GSGQFTNAGMNQQT	0.418	0.565	2.969	0.936	–	–	–	–
GSGQGIHSSVNQQT	0.634	0.632	1.981	4.873	–	–	–	–
GSGQGPQERGNQQT	0.313	0.846	1.702	1.269	–	–	–	–
GSGQHAAPGHNQQT	–	–	–	–	0.199	0.600	1.195	5.999
GSGQHLPLLGNQQT	–	–	–	–	0.347	0.519	1.175	1.739
GSGQHSNQHVNQQT	–	–	–	–	0.558	0.955	1.192	1.453
GSGQHSPHALNQQT	0.573	0.885	1.064	1.412	–	–	–	–
GSGQHVSVANNQQT	0.577	0.974	1.029	5.734	–	–	–	–
GSGQIKGKMDNQQT	1.012	1.065	1.654	2.601	–	–	–	–
GSGQILHSVPNQQT	0.240	0.398	1.752	1.316	–	–	–	–
GSGQIRESMGNQQT	–	–	–	–	0.523	0.833	1.270	1.676
GSGQIRHSDQNQQT	0.320	1.170	2.600	12.884	–	–	–	–
GSGQIRQLVDNQQT	0.272	0.314	1.657	5.529	–	–	–	–

Sequence	Fold enrichment over AAV9 in the brain of Mice (BALB/c) ([1]; RNA NGS, brain of BALB/c mice) [fold]	Fold enrichment over AAV9 in the brain of Mice (C57Bl/6) ([2]; RNA NGS, brain of C57Bl/6 mice) [fold]	Fold enrichment over AAV9 in the brain of NHPs ([3]; RNA NGS, brain of NHPs) [fold]	Fold enrichment over AAV9 in the spinal cord of NHPs ([3]; RNA NGS, spinal cord of NHPs) [fold]	Fold enrichment over AAV9 in the brain of Mice (BALB/c) [1, 4] [fold]	Fold enrichment over AAV9 in the brain of Mice (C57Bl/6) [2, 5] [fold]	Fold enrichment over AAV9 in the brain of NHPs ([3]; RNA from brain of NHPs, NGS) [fold]	Fold enrichment over AAV9 in the spinal cord of NHPs [3, 6] [fold]
GSGQIVSTQTNQQT	0.512	0.453	1.456	1.103	–	–	–	–
GSGQKMWKLDNQQT	–	–	–	–	1.418	0.990	1.341	0.000
GSGQKQERAVSKQT	–	–	–	–	0.732	1.174	1.277	0.000
GSGQLGLSVTNQQT	–	–	–	–	0.376	1.395	1.364	6.906
GSGQLIASVVNQQT	0.359	0.197	1.005	0.086	–	–	–	–
GSGQLPQSGLNQQT	–	–	–	–	0.318	0.641	1.218	1.504
GSGQLPRQMTNQQT	–	–	–	–	0.562	0.400	1.376	3.550
GSGQLRSLSTNQQT	0.382	1.310	1.622	6.855	–	–	–	–
GSGQLSGIGGNQQT	0.626	0.993	3.266	0.287	–	–	–	–
GSGQLSGTPQNQQT	–	–	–	–	0.643	1.025	1.185	1.382
GSGQLSHQSVNQQT	0.695	0.720	1.898	4.032	–	–	–	–
GSGQLSVPYDNQQT	0.111	0.622	1.521	0.000	–	–	–	–
GSGQLVLTLQNQQT	–	–	–	–	0.336	0.336	1.143	0.000
GSGQLVSGLYNQQT	–	–	–	–	0.733	0.842	1.325	0.000
GSGQLVTSGPNQQT	0.433	0.964	1.669	5.271	–	–	–	–
GSGQMASRESNQQT	0.288	0.341	2.492	0.300	–	–	–	–
GSGQMGRQAVNQQT	0.411	0.535	1.554	1.529	–	–	–	–
GSGQMKDLHRNQQT	0.506	0.587	1.014	1.068	–	–	–	–
GSGQMQPHVQNQQT	–	–	–	–	0.153	0.387	1.389	9.381
GSGQMQSAGSNQQT	1.128	1.034	1.482	0.116	–	–	–	–
